These compounds were tested against T1, CCR1 (Homo sapiens, UniProt P32246) (assay: Method A: calcium flux in CCR1 transfected cells (Fluo-4 NW, FLIPR TETRA), block of the CCR1/MIP-1α interaction). Conditions: Method A: Fluo-4 NW, MIP-1 alpha at EC80.
T1 sequence (P32246 1-355): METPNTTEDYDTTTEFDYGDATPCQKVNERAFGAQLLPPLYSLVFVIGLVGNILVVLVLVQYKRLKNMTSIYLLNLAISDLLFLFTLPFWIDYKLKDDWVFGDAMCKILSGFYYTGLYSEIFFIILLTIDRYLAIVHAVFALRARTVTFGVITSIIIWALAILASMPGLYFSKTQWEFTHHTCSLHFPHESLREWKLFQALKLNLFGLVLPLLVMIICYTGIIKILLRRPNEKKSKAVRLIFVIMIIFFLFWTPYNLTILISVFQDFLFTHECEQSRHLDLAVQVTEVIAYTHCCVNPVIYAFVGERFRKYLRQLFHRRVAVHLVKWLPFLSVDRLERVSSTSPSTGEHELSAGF
Format: cell-based
Method: Compounds are assessed for the ability to block the interaction of CCR1 and MIP-1α in a functional cellular assay measuring calcium flux in CCR1 transfected cells.
Method A: Non-adherent cells purchased from Chemicon Corporation (HTS005C), stably expressing recombinant CCR1 and G-alpha-16 are grown in RPMI 1640 medium (Mediatech 10-080-CM) supplemented with 10% heat-inactivated FBS, 0.4 mg/mL Geneticin and penicillin/streptomycin. On the day of the assay, the cells are transferred to a beaker and dye-loaded in bulk using a Fluo-4 NW Calcium Assay Kit with probenecid (Invitrogen F36205) at 0.8E6 cells/mL for 1 hour at room temperature. After 1 hour, they are seeded in a 384-well tissue culture-treated plate at a density of 20,000 cells/well. Appropriately diluted test compound is added to the well to achieve a top concentration of 3,000 nM (diluted 4-fold with 10 doses total). The final concentration of DMSO is 1%. The buffer is HBSS (Invitrogen 14025) with 20 mM HEPES at pH 7.4. The cells are allowed to incubate 1 hour in the dark at room temperature. The plates are transferred to the FLIPR TETRA where MIP-1 alpha in 1% BSA is added at the EC80 final concentration. Wells+/−MIP-1 alpha containing diluted DMSO instead of compound serve as the controls. Intracellular calcium flux is recorded on the FLIPR TETRA, using excitation at 470/495 nm and emission at 515/575 nm. Data are analyzed using Activity Base software.

| Compound | IC50 |
| --- | --- |
| CS(=O)(=O)c1cccc(CNC(=O)c2cncc3c2cnn3-c2ccc(Cl)cc2)c1 [1-(4-Chlorophenyl)-1H-pyrazolo[3,4-c]pyridine-4-carboxylic acid 3-methanesulfonyl-benzylamide] | 7 nM |
| O=C(NCc1ccc(S(=O)(=O)N2CCC(O)C2)cc1)c1cncc2c1cnn2-c1ccc(Cl)cc1 (stereo not shown) [1-(4-Chlorophenyl)-1H-pyrazolo[3,4-c]pyridine-4-carboxylic acid 4-(3-hydroxy-pyrrolidine-1-sulfonyl)-benzylamide] | 2 nM |
| CS(=O)(=O)c1ccc(CNC(=O)c2cncc3c2cnn3-c2ccc(Cl)cc2)cn1 [1-(4-Chlorophenyl)-1H-pyrazolo[3,4-c]pyridine-4-carboxylic acid (6-methanesulfonyl-pyridin-3-ylmethyl)-amide] | 34 nM |
| CCCC(NC(=O)c1cncc2c1cnn2-c1ccc(Cl)cc1)c1ccnc(Br)c1 (stereo not shown) [1-(4-Chlorophenyl)-1H-pyrazolo[3,4-c]pyridine-4-carboxylic acid [1-(2-bromopyridin-4-yl)-butyl]-amide] | 2 nM |
| CCCC(NC(=O)c1cncc2c1cnn2-c1ccc(Cl)cc1)c1ccnc(S(C)(=O)=O)c1 (stereo not shown) [1-(4-Chlorophenyl)-1H-pyrazolo[3,4-c]pyridine-4-carboxylic acid [1-(2-methanesulfonyl-pyridin-4-yl)-butyl]-amide] | 0.4 nM |
| CCCC(NC(=O)c1cncc2c1cnn2-c1ccc(Cl)cc1)c1ccc(S(C)(=O)=O)nc1 (stereo not shown) [1-(4-Chlorophenyl)-1H-pyrazolo[3,4-c]pyridine-4-carboxylic acid [1-(6-methanesulfonyl-pyridin-3-yl)-butyl]-amide] | 1 nM |
| O=C(NCc1ccc(S(=O)(=O)N2CCOCC2)nc1)c1cncc2c1cnn2-c1ccc(Cl)cc1 [1-(4-Chlorophenyl)-1H-pyrazolo[3,4-c]pyridine-4-carboxylic acid [6-(morpholine-4-sulfonyl)-pyridin-3-ylmethyl]-amide] | 3 nM |
| C[C@H](NC(=O)c1cncc2c1cnn2-c1ccc(Cl)cc1)c1cncc(Br)c1 [1-(4-Chlorophenyl)-1H-pyrazolo[3,4-c]pyridine-4-carboxylic acid [(S)-1-(5-bromopyridin-3-yl)-ethyl]-amide] | 2 nM |
| CC[C@H](NC(=O)c1cncc2c1cnn2-c1ccc(Cl)cc1)c1cncc(Br)c1 [1-(4-Chlorophenyl)-1H-pyrazolo[3,4-c]pyridine-4-carboxylic acid [(S)-1-(5-bromopyridin-3-yl)-propyl]-amide] | 0.6 nM |
| C[C@H](NC(=O)c1cncc2c1cnn2-c1ccc(Cl)cc1)c1cncc(S(C)(=O)=O)c1 [1-(4-Chlorophenyl)-1H-pyrazolo[3,4-c]pyridine-4-carboxylic acid [(S)-1-(5-methanesulfonyl-pyridin-3-yl)-ethyl]-amide] | 4 nM |
| CC[C@H](NC(=O)c1cncc2c1cnn2-c1ccc(Cl)cc1)c1cncc(S(C)(=O)=O)c1 [1-(4-Chlorophenyl)-1H-pyrazolo[3,4-c]pyridine-4-carboxylic acid [(S)-1-(5-methanesulfonyl-pyridin-3-yl)-propyl]-amide] | 0.4 nM |
| COCCN(c1ccc(CNC(=O)c2cncc3c2cnn3-c2ccc(Cl)cc2)cn1)S(C)(=O)=O [1-(4-Chlorophenyl)-1H-pyrazolo[3,4-c]pyridine-4-carboxylic acid {6-[methanesulfonyl-(2-methoxy-ethyl)-amino]-pyridin-3-ylmethyl}-amide] | 5 nM |
| CNS(=O)(=O)c1ccc(CNC(=O)c2cncc3c2cnn3-c2ccc(F)cc2)c(Cl)c1 [1-(4-Fluorophenyl)-1H-pyrazolo[3,4-c]pyridine-4-carboxylic acid 2-chloro-4-methylsulfamoyl-benzylamide] | 0.2 nM |
| O=C(NCc1cc(C(F)(F)F)cc(C(F)(F)F)c1)c1cncc2c1cnn2-c1ccc(F)cc1 [1-(4-Fluorophenyl)-1H-pyrazolo[3,4-c]pyridine-4-carboxylic acid 3,5-bis-trifluoromethyl-benzylamide] | 3 nM |
| O=C(NCc1cc(Cl)cc(Cl)c1)c1cncc2c1cnn2-c1ccc(F)cc1 [1-(4-Fluorophenyl)-1H-pyrazolo[3,4-c]pyridine-4-carboxylic acid 3,5-dichloro-benzylamide] | 7 nM |

What follows are compounds tested against T1, CCR1 (assay: Method B: calcium flux in CCR1 transfected cells (Calcium 4 dye, […] FDSS6000), block of the CCR1/MIP-1α interaction). Conditions: Method B: Calcium 4 dye, MIP-1alpha at EC80.
Format: cell-based
In short: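 Non-adherent cells stably expressing CCR1 and G-alpha-16 were loaded with Calcium 4 dye plus probenecid for 1 h at room temperature. Compounds (top 3,000 nM, 4-fold, 10 doses, 1% DMSO) in HBSS/20 mM HEPES pH 7.4 were incubated 30 min at 37 C, then 30 min at room temperature. MIP-1α at EC80 was added and calcium flux read on FDSS6000.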

| Compound | IC50 |
| --- | --- |
| CCC(NC(=O)c1cncc2c1cnn2-c1ccc(F)cc1)C1CCCN(C(=O)OC(C)(C)C)C1 (stereo not shown) [3-(1-{[1-(4-Fluorophenyl)-1H-pyrazolo[3,4-c]pyridine-4-carbonyl]-amino}-propyl)-piperidine-1-carboxylic acid tert-butyl ester] | 26 nM |
| COC(=O)CCS(=O)(=O)c1cc([C@H](C)NC(=O)c2cncc3c2cnn3-c2ccc(F)cc2)ccn1 [3-[4-((S)-1-{[1-(4-Fluorophenyl)-1H-pyrazolo[3,4-c]pyridine-4-carbonyl]-amino}-ethyl)-pyridine-2-sulfonyl]-propionic acid methyl ester] | 37 nM |
| CC[C@H](NC(=O)c1cncc2c1cnn2-c1ccc(F)cc1)c1ccnc(S(=O)(=O)CCC(=O)OC)c1 [3-[4-((S)-1-{[1-(4-Fluorophenyl)-1H-pyrazolo[3,4-c]pyridine-4-carbonyl]-amino}-propyl)-pyridine-2-sulfonyl]-propionic acid methyl ester] | 1 nM |

Results, then the compound that gave them:

| IC50 | Compound |
| --- | --- |
| 6.3 nM | CC[C@H](NC(=O)c1cncc2c1cnn2-c1ccc(F)cc1)c1cncc(S(=O)(=O)CCC(=O)OC)c1 [3-[5-((S)-1-{[1-(4-Fluorophenyl)-1H-pyrazolo[3,4-c]pyridine-4-carbonyl]-amino}-propyl)-pyridine-3-sulfonyl]-propionic acid methyl ester] |
| 35 nM | COC(=O)CCS(=O)(=O)c1cccc([C@H](C)NC(=O)c2cncc3c2cnn3-c2ccc(F)cc2)n1 [3-[6-((S)-1-{[1-(4-Fluorophenyl)-1H-pyrazolo[3,4-c]pyridine-4-carbonyl]-amino}-ethyl)-pyridine-2-sulfonyl]-propionic acid methyl ester] |
| 3 nM | CC[C@H](NC(=O)c1cncc2c1cnn2-c1ccc(F)cc1)c1cccc(S(=O)(=O)CCC(=O)OC)n1 [3-[6-((S)-1-{[1-(4-Fluorophenyl)-1H-pyrazolo[3,4-c]pyridine-4-carbonyl]-amino}-propyl)-pyridine-2-sulfonyl]-propionic acid methyl ester] |
| 4 nM | CCC(NC(=O)c1cncc2c1cnn2-c1ccc(F)cc1)C1CCN(C(=O)OC(C)(C)C)CC1 (stereo not shown) [4-(1-{[1-(4-Fluorophenyl)-1H-pyrazolo[3,4-c]pyridine-4-carbonyl]-amino}-propyl)-piperidine-1-carboxylic acid tert-butyl ester] |
| 12 nM | CC[C@H](NC(=O)c1cncc2c1cnn2-c1ccc(F)cc1)c1ccnc(C(=O)O)c1 [4-((S)-1-{[1-(4-Fluorophenyl)-1H-pyrazolo[3,4-c]pyridine-4-carbonyl]-amino}-propyl)-pyridine-2-carboxylic acid] |
| 4 nM | COC(=O)C[C@H](NC(=O)c1cncc2c1cnn2-c1ccc(F)cc1)c1ccnc(S(C)(=O)=O)c1 [(S)-3-{[1-(4-Fluorophenyl)-1H-pyrazolo[3,4-c]pyridine-4-carbonyl]-amino}-3-(2-methanesulfonyl-pyridin-4-yl)-propionic acid methyl ester] |
| 11 nM | CCOC(=O)Cn1ccc([C@H](CC)NC(=O)c2cncc3c2cnn3-c2ccc(F)cc2)n1 [[3-((S)-1-{[1-(4-Fluorophenyl)-1H-pyrazolo[3,4-c]pyridine-4-carbonyl]-amino}-propyl)-pyrazol-1-yl]-acetic acid ethyl ester] |
| 25 nM | CCOC(=O)Cn1cc([C@H](CC)NC(=O)c2cncc3c2cnn3-c2ccc(F)cc2)cn1 [[4-((S)-1-{[1-(4-Fluorophenyl)-1H-pyrazolo[3,4-c]pyridine-4-carbonyl]-amino}-propyl)-pyrazol-1-yl]-acetic acid ethyl ester] |
| 4 nM | CCOC(=O)CS(=O)(=O)c1cc(CNC(=O)c2cncc3c2cnn3-c2ccc(F)cc2)ccn1 [[4-({[1-(4-Fluorophenyl)-1H-pyrazolo[3,4-c]pyridine-4-carbonyl]-amino}-methyl)-pyridine-2-sulfonyl]-acetic acid ethyl ester] |
| 26 nM | CCC(NC(=O)c1cncc2c1cnn2-c1ccc(F)cc1)c1nc(C(=O)NCC(=O)OC)c(C)o1 (stereo not shown) [{[2-(1-{[1-(4-Fluorophenyl)-1H-pyrazolo[3,4-c]pyridine-4-carbonyl]-amino}-propyl)-5-methyl-oxazole-4-carbonyl]-amino}-acetic acid methyl ester] |
